The nature of series [1]: physchem.
For series [2], the target named is T1, 5-lipoxygenase (LO) (Bos taurus, UniProt F1MQ78).
T1 construct: endogenous in cells
T1 sequence (F1MQ78 1-674): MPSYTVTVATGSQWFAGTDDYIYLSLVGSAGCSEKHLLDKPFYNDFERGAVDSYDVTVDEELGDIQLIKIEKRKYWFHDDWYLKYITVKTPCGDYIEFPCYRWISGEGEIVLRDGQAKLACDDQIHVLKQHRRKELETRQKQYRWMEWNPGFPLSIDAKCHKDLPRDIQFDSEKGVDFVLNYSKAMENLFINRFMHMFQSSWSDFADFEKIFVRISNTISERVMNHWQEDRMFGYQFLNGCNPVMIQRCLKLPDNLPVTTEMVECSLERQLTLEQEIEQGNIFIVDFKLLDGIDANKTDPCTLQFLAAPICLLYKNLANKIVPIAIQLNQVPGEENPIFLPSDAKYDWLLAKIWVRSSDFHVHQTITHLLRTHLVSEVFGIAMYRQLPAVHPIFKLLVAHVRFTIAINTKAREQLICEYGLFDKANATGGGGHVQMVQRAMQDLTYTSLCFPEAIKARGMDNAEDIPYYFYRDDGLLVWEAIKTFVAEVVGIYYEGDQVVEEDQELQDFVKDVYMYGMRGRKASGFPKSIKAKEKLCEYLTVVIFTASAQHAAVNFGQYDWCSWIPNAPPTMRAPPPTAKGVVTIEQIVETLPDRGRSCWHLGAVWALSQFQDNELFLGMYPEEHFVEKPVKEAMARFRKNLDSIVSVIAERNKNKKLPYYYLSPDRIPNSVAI
As to the kind of experiment: Inhibition of the enzyme 5-lipoxygenase (LO). In kind it is biochemical. The conditions noted are these: first figure of cell 'LO/CO'; decimal comma; concentration unit inferred; read-out: 7) IC50 LO. The text has this: (§1) 7) IC50 /LO/CO: Inhibition of the enzyme cyclooxygenase (CO) and 5-lipoxygenase (LO), Dannhardt et al., J. Pharm. Pharmacol. 1992, 44:419-424.

Series [3] deals with T2, cyclooxygenase (CO) (Bos taurus, UniProt O62664).
T2 construct: endogenous in cells
T2 sequence (O62664 25-600): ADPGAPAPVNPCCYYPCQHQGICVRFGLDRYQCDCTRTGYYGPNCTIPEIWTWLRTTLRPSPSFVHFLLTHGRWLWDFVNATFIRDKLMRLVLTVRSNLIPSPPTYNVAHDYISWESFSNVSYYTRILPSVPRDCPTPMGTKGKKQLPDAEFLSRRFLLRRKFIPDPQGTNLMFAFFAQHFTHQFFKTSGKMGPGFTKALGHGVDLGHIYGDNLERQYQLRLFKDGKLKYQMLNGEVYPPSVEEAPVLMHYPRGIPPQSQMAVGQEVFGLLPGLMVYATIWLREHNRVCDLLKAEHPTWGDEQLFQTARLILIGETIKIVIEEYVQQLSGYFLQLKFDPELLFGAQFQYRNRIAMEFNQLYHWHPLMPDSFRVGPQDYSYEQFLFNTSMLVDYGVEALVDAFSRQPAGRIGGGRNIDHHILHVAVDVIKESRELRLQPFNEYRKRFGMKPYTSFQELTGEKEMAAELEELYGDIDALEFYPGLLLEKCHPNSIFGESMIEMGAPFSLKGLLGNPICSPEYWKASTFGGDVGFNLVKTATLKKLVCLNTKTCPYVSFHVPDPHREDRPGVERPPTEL
As to the kind of experiment: Inhibition of the enzyme cyclooxygenase (CO). In kind it is biochemical. The conditions noted are these: second figure of cell 'LO/CO'; decimal comma; concentration unit inferred; read-out: 7) IC50 CO.
Description: as §1

`CC1(C)Cc2c(-c3ccccc3)c(-c3ccc(Cl)cc3)c(CC(=O)O)n2C1` [6-(4-chlorophenyl)-2,2-dimethyl-7-phenyl-2,3-dihydro-1H-pyrrolizin-5-yl acetic acid] returned a degraded at 24 h in series [1] (aqueous solution) of approximately 2%. Moreover, the half-life (usually how long it takes for the measured level to halve) in series [1] (chloroform) was approximately 1 h.
With `CC1(C)Cc2c(-c3ccccc3)c(-c3ccc(Cl)cc3)c(CC(=O)NS(C)(=O)=O)n2C1` [Example 4], the IC50 (in general, the point on the concentration scale where inhibition reaches its midpoint) amounted to 0.23 µM in series [2] and 0.15 µM in series [3].

The record behind these values is US5942535A, “[a]-Annelated pyrrole derivatives and pharmaceutical use thereof” (Merckle GmbH, priority 1994, dated 1999).
